Assay results taken from ChEMBL document CHEMBL3885881, “DrugMatrix”.

Species on record: Rattus norvegicus
Assay: DrugMatrix - Regimen: Daily Repeat
Assay type: toxicity, organism-based, Sprague-Dawley
Design: regimen Daily Repeat, gender Male, age 6-8 weeks
Conditions: in vivo, sc, route subcutaneous, […]; for ABSOLUTE BASOPHIL / ABSOLUTE EOSINOPHIL / ABSOLUTE LYMPHOCYTE / ABSOLUTE MONOCYTE / ABSOLUTE SEGMENTED NEUTROPHIL / BASOPHIL / EOSINOPHIL / ERYTHROCYTE COUNT / HEMATOCRIT / HEMOGLOBIN / LEUKOCYTE COUNT / LYMPHOCYTE / MEAN CORPUSCULAR HEMOGLOBIN / MEAN CORPUSCULAR HEMOGLOBIN CONCENTRATION / MEAN CORPUSCULAR VOLUME / MONOCYTE / NEUTROPHIL / NUCLEATED RED BLOOD CELLS / PLATELET COUNT: tissue Blood
[1] = 25 mg/kg, 120 h, tissue Plasma, dose level High, time 5 day
[2] = 72 h, dose 0.25 mg/Kg, dose level M1, time 3 day
[3] = 72 h, tissue Plasma, dose 0.25 mg/Kg, dose level M1, time 3 day
[4] = 120 h, dose 0.25 mg/Kg, dose level M1, time 5 day
[5] = 120 h, tissue Plasma, dose 0.25 mg/Kg, dose level M1, time 5 day

C[C@]12CC[C@@H]3c4ccc(OC(=O)c5ccccc5)cc4CC[C@H]3[C@@H]1CC[C@@H]2O [ESTRADIOL BENZOATE]
SODIUM [1]: 143.3 MEQ/L
TOTAL BILIRUBIN [1]: 0.1 mg/dL
TOTAL PROTEIN [1]: 7.6 G/DL
URIC ACID [1]: 2.1 mg/dL
ABSOLUTE BASOPHIL [2]: 0 CELLS/uL
ABSOLUTE EOSINOPHIL [2]: 0 CELLS/uL
ABSOLUTE LYMPHOCYTE [2]: 8002.33 CELLS/uL
ABSOLUTE MONOCYTE [2]: 146.33 CELLS/uL
ABSOLUTE SEGMENTED NEUTROPHIL [2]: 218 CELLS/uL
BASOPHIL [2]: 0%
EOSINOPHIL [2]: 0%
ERYTHROCYTE COUNT [2]: 6.05 x10E6/uL
HEMATOCRIT [2]: 38.6%
HEMOGLOBIN [2]: 15.03 G/DL
LEUKOCYTE COUNT [2]: 8.37 x10E3/uL
LYMPHOCYTE [2]: 95.67%
MEAN CORPUSCULAR HEMOGLOBIN [2]: 24.83 pg
MEAN CORPUSCULAR HEMOGLOBIN CONCENTRATION [2]: 39.03 G/DL
MEAN CORPUSCULAR VOLUME [2]: 63.73 fL
MONOCYTE [2]: 1.67%
NEUTROPHIL [2]: 2.67%
NUCLEATED RED BLOOD CELLS [2]: 0 /100WBC
PLATELET COUNT [2]: 1109.67 x10E3/uL
ALANINE AMINOTRANSFERASE [3]: 61.67 u/L
ALBUMIN [3]: 4.2 G/DL
ALKALINE PHOSPHATASE [3]: 323.67 u/L
ASPARTATE AMINOTRANSFERASE [3]: 81.33 u/L
BLOOD UREA NITROGEN [3]: 11.33 mg/dL
CARBON DIOXIDE [3]: 26.33 mmol/L
CHOLESTEROL [3]: 75.67 mg/dL
CREATINE PHOSPHOKINASE [3]: 295 u/L
CREATININE [3]: 0.23 mg/dL
GLUCOSE [3]: 126 mg/dL
LACTATE DEHYDROGENASE [3]: 285.67 u/L
LIPASE [3]: 12.33 u/L
PHOSPHORUS [3]: 10.4 mg/dL
TOTAL BILIRUBIN [3]: 0.1 mg/dL
TOTAL PROTEIN [3]: 6.03 G/DL
URIC ACID [3]: 0.43 mg/dL
ABSOLUTE BASOPHIL [4]: 0 CELLS/uL
ABSOLUTE EOSINOPHIL [4]: 45.33 CELLS/uL
ABSOLUTE LYMPHOCYTE [4]: 12282.67 CELLS/uL
ABSOLUTE MONOCYTE [4]: 135 CELLS/uL
ABSOLUTE SEGMENTED NEUTROPHIL [4]: 937 CELLS/uL
BASOPHIL [4]: 0%
EOSINOPHIL [4]: 0.33%
ERYTHROCYTE COUNT [4]: 5.99 x10E6/uL
HEMATOCRIT [4]: 37.83%
HEMOGLOBIN [4]: 14.7 G/DL
LEUKOCYTE COUNT [4]: 13.4 x10E3/uL
LYMPHOCYTE [4]: 91.67%
MEAN CORPUSCULAR HEMOGLOBIN [4]: 24.53 pg
MEAN CORPUSCULAR HEMOGLOBIN CONCENTRATION [4]: 38.87 G/DL
MEAN CORPUSCULAR VOLUME [4]: 63.13 fL
MONOCYTE [4]: 1%
NEUTROPHIL [4]: 7%
NUCLEATED RED BLOOD CELLS [4]: 0 /100WBC
PLATELET COUNT [4]: 1305.33 x10E3/uL
ALANINE AMINOTRANSFERASE [5]: 47.67 u/L
ALBUMIN [5]: 4 G/DL
ALKALINE PHOSPHATASE [5]: 486.33 u/L
ASPARTATE AMINOTRANSFERASE [5]: 78.33 u/L
BLOOD UREA NITROGEN [5]: 15.33 mg/dL
CARBON DIOXIDE [5]: 22.67 mmol/L
CHLORIDE [5]: 104.33 MEQ/L
CHOLESTEROL [5]: 33 mg/dL
CREATINE PHOSPHOKINASE [5]: 654 u/L
CREATININE [5]: 0.27 mg/dL
GLUCOSE [5]: 190 mg/dL
LACTATE DEHYDROGENASE [5]: 308 u/L
LIPASE [5]: 9 u/L
PHOSPHORUS [5]: 12.63 mg/dL
POTASSIUM [5]: 4.9 MEQ/L
SODIUM [5]: 143.3 MEQ/L
TOTAL BILIRUBIN [5]: 0.1 mg/dL
TOTAL PROTEIN [5]: 5.73 G/DL
URIC ACID [5]: 1.6 mg/dL
